Measurements: patent US20210078932A1, “3,4-DIHYDROXYPHENETHYL 3-HYDROXYBUTANOATE, PREPARATION AND USE THEREOF” (XI'AN JIAOTONG UNIVERSITY, priority 2019, published 2021)

Legend:
rats with brain fatigue [1] = test: Open field test in sleep-deprivation brain fatigue rat model; format: in vivo, SD rats; settings: for amelioration of manic mood of the rats with brain fatigue: overall conclusion after administration; for average moving speed / number of movements: sleep-deprived rats, drug intragastrically daily, compared with brain fatigue group; for average moving speed: FIG. 2A; for number of movements: FIG. 2B
Method: (§1) 8-week-old adult male SD rats (body weight: 250 g) purchased from Experimental Animal Center of The Second Military Medical University in Shanghai were used in the experiments. The rats were kept in an animal room with controlled temperature (22° C. to 28° C.) and humidity (60%). The light of the room was maintained in a 12 h/12 h day/night light cycle. The rats were able to eat and drink freely during the experiments. A brain fatigue rat model was established by using the sleep deprivation method in the experiments. The experimental rats were divided into five groups, with 10 rats in each group.
The five groups are as follows: (1) a normal feeding group with normal saline intragastrically administered daily (hereinafter referred to as the control group); (2) a brain fatigue model group established by the sleep deprivation method, with normal saline intragastrically administered daily (hereinafter referred to as the brain fatigue group); (3) a brain fatigue model group established by the sleep deprivation method, with 35 mg/kg of hydroxytyrosol acetate intragastrically administered daily (hereinafter referred to as HTac group, as shown in the following table); (4) a brain fatigue model group established by the sleep deprivation method, with 23.6 mg/kg of […] intragastrically administered daily (hereinafter referred to as HBET group, as shown in the following table); (5) a brain fatigue model group established by the sleep deprivation method, with 42.9 mg/kg of hydroxytyrosol hydroxybutyrate intragastrically administered daily (hereinafter referred to as HTHB group, as shown in Table 1).
The rats were preconditioned in the animal room for one week, during which the drugs were intragastrically administered. From the second day of the acquisition training of the water maze experiment, the rats other than the control group were started to be subjected to the small-platform-over-water sleep deprivation to establish the brain fatigue stress model. The sleep deprivation apparatus was mainly composed of two parts: a water tank and a platform disposed in the tank. The tank was filled with water. The size of the platform can only for the hind legs of the rat to stand. The platform was fixed to the bottom of the tank, and the top surface of the platform is above the water surface. The rat was placed on the platform for sleep deprivation. Once the rat fell asleep, its muscle tension would decrease and its center of gravity would move forward, which would cause the rat to fall into the water and suddenly be awakened. In order to avoid this, the rat must keep a slight grip on the edge of the platform, which deprived the sleep of the rat and caused brain fatigue.
The open field test is a classic behavioral test to evaluate emotion of rodents, which is based on the principle that the rodents have instincts to fear an open field and have spontaneous phobotaxis activities. Abnormalities in phobotaxis can indicate emotional abnormalities of rodents. The apparatus of the open field test was mainly composed of a black PVC box and a video tracking system. The box was 80 cm in both length and width and 50 cm in height. A camera of the video tracking system was hung at a height of 1.5 meters from the bottom of the box. The rat can move freely in the open field box, and the camera facing the box recorded the movements of the rat. By using the video tracking system, the interior of the box was divided into 16 squares arranged in 4×4 matrix, in which 12 surrounding squares were defined as a surrounding area, and 4 internal squares were defined as a central area, respectively.
The open field test follows the last day of the water maze experiment. After the water maze experiment, each rat was put back into the cage and rested for 10 minutes. Then in the open field test, the rat was placed at the center of the box bottom in a quiet environment, and was video recorded by the camera for 5 minutes, after which the rat was removed from the box. […]

rats with brain fatigue [2] = test: Morris water maze experiment (exploration test) in sleep-deprivation brain fatigue rat model; format: in vivo, SD rats
Method: as §1, with “group. […]” for “group.”

Row | Compound | amelioration of manic mood of the rats with brain fatigue (rats with brain fatigue [1]) | average moving speed (rats with brain fatigue [1]) | improvement of learning and memory abilities of the rats with brain fatigue (rats with brain fatigue [2]; overall conclusion, compared with hydroxytyrosol acetate and ethyl β-hydroxybutyrate) | swimming time in the quadrant IV (percentage) (rats with brain fatigue [2]; sleep-deprived rats, drug intragastrically daily, compared with brain fatigue group, FIG. 1A) | amelioration of manic mood compared with hydroxytyrosol acetate and ethyl β-hydroxybutyrate (rats with brain fatigue [1]; overall comparison, in some indicators) | number of movements (rats with brain fatigue [1])
1 | CCOC(=O)CC(C)O (stereo not drawn) [HBET, ethyl β-hydroxybutyrate] | significantly ameliorated to certain degrees | significantly different |  |  |  | 
2 | CC(O)CC(=O)OCCc1ccc(O)c(O)c1 (centres unmarked) [HTHB, 3,4-dihydroxyphenethyl 3-hydroxybutanoate] | significantly ameliorated to certain degrees | significantly different | more obviously improved the learning and memory abilities | significantly different | better amelioration of manic mood | significantly different
3 | hydroxytyrosol acetate [HTac] | significantly ameliorated to certain degrees | significantly different |  |  |  | significantly different
